Data taken from patent publication US7098227B2, “Disubstituted thiazolyl carboxanilides and their use as microbicides” (Bayer Cropscience AG, priority 2002, dated 2006).

Assays:
[1] = logP determination by HPLC on reverse-phase column (C 18), EEC Directive 79/831 Annex V.A8; format: physicochemical; conditions: 43° C.; for chromatographic logP: reverse-phase HPLC column (C 18), pH 2.3, pH 2.3, 0.1% aqueous phosphoric acid/acetonitrile gradient
Description: The logP values given in the tables and Preparation Examples above are determined in accordance with EEC Directive 79/831 Annex V.A8 by HPLC (High Performance Liquid Chromatography) on a reverse-phase column (C 18). Temperature: 43° C. The determination is carried out in the acidic range at pH 2.3 using the mobile phases 0.1% aqueous phosphoric acid and acetonitrile; linear gradient from 10% acetonitrile to 90% acetonitrile. Calibration is carried out using unbranched alkan-2-ones (of 3 to 16 carbon atoms), with known logP values (determination of the logP values by the retention times using linear interpolation between two successive […]).

Venturia inaequalis = assay: Venturia Test (Apple)/Protective; format: in vivo; conditions: 240 h, application rate 10 g/ha, protective spray, evaluation 10 days after inoculation, 100% = no infection, read-out: % Efficacy
Description: Venturia Test (Apple)/Protective [table] To produce a suitable preparation of active compound, 1 part by weight of active compound is mixed with the stated amounts of solvent and the emulsifier, and the concentrate is diluted with water to the desired concentration. To test for protective activity, young plants are sprayed with the preparation of active compound at the stated application rate. After the spray coating has dried on, the plants are inoculated with an aqueous conidia suspension of the apple scab pathogen Venturia inaequalis and then remain in an incubation cabin at about 20° C. and 100% relative atmospheric humidity for 1 day. The plants are then placed in a greenhouse at about 21° C. and a relative atmospheric humidity of about 90%. Evaluation is carried out 10 days after the inoculation. 0% means an efficacy which corresponds to that of the control, whereas an efficacy of 100% means that no infection is observed.

Botrytis cinerea = assay: Botrytis Test (Bean)/Protective; format: in vivo; conditions: 48 h, application rate 100 g/ha, protective spray, evaluation 2 days after inoculation, 100% = no infection, read-out: % Efficacy
Description: Botrytis Test (Bean)/Protective [table] To produce a suitable preparation of active compound, 1 part by weight of active compound is mixed with the stated amounts of solvent and emulsifier, and the concentrate is diluted with water to the desired concentration. To test for protective activity, young plants are sprayed with the preparation of active compound at the stated application rate. After the spray coating has dried on, 2 small pieces of agar colonised by Botrytis cinerea are placed onto each leaf. The inoculated plants are then placed in a dark chamber at about 20° C. and 100% relative atmospheric humidity. 2 days after the inoculation, the size of the infected areas on the leaves is evaluated. 0% means an efficacy which corresponds to that of the control, whereas an efficacy of 100% means that no infection is observed.

Sphaerotheca fuliginea = assay: Sphaerotheca Test (Cucumber)/Protective; format: in vivo; conditions: Podosphaera fuliginea, 168 h, application rate 10 g/ha, protective spray, evaluation 7 days after inoculation, 100% = no infection, read-out: % Efficacy
Description: Sphaerotheca Test (Cucumber)/Protective [table] To produce a suitable preparation of active compound, 1 part by weight of active compound is mixed with the stated amounts of solvent and emulsifier, and the concentrate is diluted with water to the desired concentration. To test for protective effectivity, the young plants are sprayed with the preparation of active compound at the stated application rate. After the spray coating has dried on, the plants are inoculated with an aqueous spore suspension of Sphaerotheca fuliginea. The plants are then placed in a greenhouse at about 23° C. and a relative atmospheric humidity of about 70%. Evaluation is carried out 7 days after the inoculation. 0% means an efficacy which corresponds to that of the control, whereas an efficacy of 100% means that no infection is observed.

Rhizoctonia solani = assay: In vitro Test for the ED50 Determination in Microorganisms; format: cell-based; conditions: 50% inhibition of fungal growth, tested at 0.1, 1, 10 and 100 ppm, 22° C., 3–5 days, photometric 620 nm
Description: (§1) In vitro Test for the ED50 Determination in Microorganisms A methanolic solution of the active compound to be tested, mixed with the emulsifier PS16, is pipetted into the wells of microtitre plates. After the solvent has evaporated, 200 μl of potato/dextrose medium are added to each well. Beforehand, a suitable concentration of spores or mycelium of the fungus to be tested was added to the medium. The resulting concentrations of the active compound are 0.1, 1, 10 and 100 ppm. The resulting concentration of the emulsifier is 300 ppm. The plates are then incubated on a shaker at a temperature of 22° C. for 3–5 days, until sufficient growth can be observed in the untreated control. Evaluation is carried out photometrically at a wavelength of 620 nm. The dose of active compound which causes a 50% inhibition of fungal growths compared to the untreated control (ED50), is calculated from the data measured at different concentrations.

Septoria tritici = assay: as above; format: cell-based; conditions: 50% inhibition of fungal growth, tested at 0.1, 1, 10 and 100 ppm, 22° C., 3–5 days, photometric 620 nm
Description: as §1

| Structure (SMILES) | chromatographic logP [1] | melting point | logP ([1]; pH 2.3, 0.1% aqueous phosphoric acid/acetonitrile gradient, listed as 2) | pest or weed control at 10 g/ha (Venturia inaequalis) | pest or weed control at 100 g/ha (Botrytis cinerea) | pest or weed control at 10 g/ha (Sphaerotheca fuliginea) | ED50 (Rhizoctonia solani) | ED50 (Septoria tritici) |
| --- | --- | --- | --- | --- | --- | --- | --- | --- |
| Cc1nc(C(F)(F)F)c(C(=O)Nc2ccccc2-c2ccc(C)c(Cl)c2)s1 [Example 18] | – | – | – | 100% | 99% | – | – | – |
| Cc1nc(C(F)(F)F)c(C(=O)Nc2ccccc2-c2ccc(Cl)c(F)c2)s1 [Example 7] | 3.61 | 139 to 141 °C | – | 100% | 92% | 95% | – | – |
| Cc1nc(C(F)(F)F)c(C(=O)Nc2ccccc2-c2ccc(F)c(C(F)(F)F)c2)s1 [Example 9] | 3.76 | – | – | – | – | 90% | – | – |
| Cc1nc(C(F)(F)F)c(C(=O)Nc2ccccc2-c2ccc(Cl)cc2)s1 [reference compound] | – | – | – | 76% | 76% | 30% | >100>100 ppm | >100>100 ppm |
| Cc1nc(C(F)(F)F)c(C(=O)Nc2ccccc2-c2ccc(F)cc2)s1 [Example 3.37, reference compound] | – | – | – | 32% | 50% | 20% | > 100 ppm | 84.24 ppm |
| Cc1nc(C(F)(F)F)c(C(=O)Nc2ccccc2-c2ccc(C)c(C(F)(F)F)c2)s1 [Example 12] | 4.03 | – | – | – | – | 100% | < 0.1 ppm | 3.16 ppm |
| Cc1nc(C(F)(F)F)c(C(=O)Nc2ccccc2-c2ccc(Cl)c(C(F)(F)F)c2)s1 [Example 11] | 4.03 | – | – | 100% | – | 100% | < 0.1 ppm | 1.42 ppm |
| Cc1nc(C(F)(F)F)c(C(=O)Nc2ccccc2-c2ccc(OC(F)(F)F)c(C(F)(F)F)c2)s1 [Example 13] | 4.08 | – | – | – | – | 85% | – | – |
| Cc1nc(C(F)(F)F)c(C(=O)Nc2ccccc2-c2ccc(F)c(C)c2)s1 [Example 10] | – | – | – | 100% | 95% | 98% | <0.1 <0.1 ppm | <0.1 <0.1 ppm |
| Nc1ccccc1-c1ccc(F)c(Cl)c1 [Example (III-1), 3′-chloro-4′-fluoro-1,1′-biphenyl-2-amine] | 3.01 | – | – | – | – | – | – | – |

The next lines start with results.

| chromatographic logP [1] | melting point | logP ([1]; pH 2.3, 0.1% aqueous phosphoric acid/acetonitrile gradient, listed as 2) | Structure (SMILES) | pest or weed control at 10 g/ha (Venturia inaequalis) | pest or weed control at 100 g/ha (Botrytis cinerea) | pest or weed control at 10 g/ha (Sphaerotheca fuliginea) | ED50 (Rhizoctonia solani) | ED50 (Septoria tritici) |
| --- | --- | --- | --- | --- | --- | --- | --- | --- |
| 2.81 | – | – | Cc1nc(C(F)(F)F)c(C(=O)Nc2ccccc2I)s1 [Example (IV-1), N-(2-iodophenyl)-2-methyl-4-(trifluoromethyl)-1,3-thiazol-5-carboxamide] | – | – | – | – | – |
| 3.31 | 120 to 122 °C | – | Cc1nc(C(F)(F)F)c(C(=O)Nc2ccccc2-c2ccc(F)c(F)c2)s1 [Example 4] | 100% | – | 90% | – | – |
| 4.23 | – | – | Cc1nc(C(F)(F)F)c(C(=O)Nc2ccccc2-c2ccc(Cl)cc2C)s1 [Example 16] | – | – | – | 0.45 ppm | 0.89 ppm |
| 3.52 | – | – | Cc1nc(C(F)(F)F)c(C(=O)Nc2ccccc2-c2ccc(Cl)cc2F)s1 [Example 19] | 100% | 99% | 81% | – | – |
| 3.58 | – | 3.60 | Cc1nc(C(F)(F)F)c(C(=O)Nc2ccccc2-c2ccc(F)c(Cl)c2)s1 [Example 1, N-(3′-chloro-4′-fluoro-1,1′-biphenyl-2-yl)-2-methyl-4-(trifluoromethyl)-1,3-thiazol-5-carboxamide] | 100% | 82% | 83% | – | – |
| 3.86 | – | – | Cc1nc(C(F)(F)F)c(C(=O)Nc2ccccc2-c2ccc(Cl)cc2Cl)s1 [Example 17] | – | 87% | 90% | – | – |
| 3.63 | – | – | Cc1nc(C(F)(F)F)c(C(=O)Nc2ccccc2-c2cc(Cl)cc(Cl)c2)s1 [Example 14] | 100% | – | – | < 0.1 ppm | 0.32 ppm |
| 3.35 | 133 to 134 °C | – | Cc1nc(C(F)(F)F)c(C(=O)Nc2ccccc2-c2cc(F)cc(F)c2)s1 [Example 5] | 94% | – | – | – | – |
| 3.21 | – | – | Cc1nc(C(F)(F)F)c(C(=O)Nc2ccccc2-c2ccc(F)cc2F)s1 [Example 6] | 99% | – | – | – | – |
| 2.79 | – | – | Cc1nc(C(F)(F)F)c(C(=O)Nc2ccccc2Br)s1 [Example (IV-2), N-(2-bromophenyl)-2-methyl-4-(trifluoromethyl)-1,3-thiazol-5-carboxamide] | – | – | – | – | – |
